Experimental data as given in EPA's ToxValDB 9.5 (doi:10.2903/j.efsa.2008.176r).
Converted amounts (≈) assume the structure as drawn.

Tests used:
Colinus virginianus = settings: oral
Rattus norvegicus = settings: oral; for LD50: acute, mortality
Apis mellifera = settings: acute; duration: 48 hours; oral; unspecified; mortality
Canidae = settings: chronic; duration: 1 years; oral; Dog Other; histopathology: nonneoplastic
Daphnia magna = settings: chronic/long-term; duration: 21 days; reproduction
Hypoaspis aculeifer = settings: chronic/long-term
Mus musculus = settings: developmental; development
Oryctolagus sp. = settings: developmental; development
[1] = reproduction developmental, diet

Row | Compound | LC50 (Colinus virginianus; acute, diet, mortality) [mg/kg-day] | LD50 (Rattus norvegicus) [mg/kg-day] | LD50 (Apis mellifera) [µg/piece] | NOAEL (Canidae) [mg/kg-day] | LD50 (Colinus virginianus; acute, mortality) [mg/kg-day] | LOEL (Colinus virginianus; [1]) [mg/kg-day] | NOEL (Colinus virginianus; [1]) [mg/kg-day] | NOEC (Daphnia magna) [mg/L] | NOEC (Hypoaspis aculeifer) [mg/kg] | LOAEL (Mus musculus) [mg/kg-day] | LC50 (Oncorhynchus mykiss; acute, duration: 96 hours, mortality) [mg/L] | NOEC (Oncorhynchus mykiss; chronic/long-term, duration: 83 days, growth) [mg/L] | NOEL (Oryctolagus sp.) [mg/kg-day] | NOEL (Rattus norvegicus; reproduction developmental, diet, body weight) [mg/kg-day] | LC50 (Tagia sp.; acute, duration: 14 days, mortality) [mg/kg] | NOEC (Tagia sp.; chronic/long-term, duration: 8 weeks, reproduction) [mg/kg]
1 | NC(Cc1ncn[nH]1)C(=O)O (stereo not drawn) [1,2,4-Triazole-3-alanine] | > 1370 | > 5000 |  |  |  |  |  |  |  |  |  |  |  |  |  | 
2 | CC(C)(C)C(O)(CCc1ccc(Cl)cc1)Cn1cncn1 (stereo not drawn) [Tebuconazole] | > 703 | 1700 | > 83 | 3 | 1990 | 12.4 | 5.8 | 0.01 | 50 | 10 | 4.4 (≈ 14.3 µM) | 0.012 | 10 | 10 | 1380 | 10
